In publication PMC12476087, “Loading of Dicarboxylatoplatinum(II)‐NHC Complexes in Bacterial Ghosts as an Advanced Development in Cancer Therapy” (Archiv Der Pharmazie, 2025):

Legend:
[1] = test system: caspase‐3 in A2780wt cells; assay: Caspase‐3 activity assay (ApoTox‐Glo), A2780wt; assay type: cell-based; details: w/o BGs, 25 µM, 24 h
Method: Furthermore, caspase‐3 activation serves as a primary hallmark of apoptosis. Therefore, we evaluated this induction with a luminescence‐based caspase‐3 activity assay on A2780wt cells.
The caspase‐3 assay was performed to investigate the induction of apoptosis by the compounds. It was performed by employing the commercially available ApoTox‐Glo Triplex Assay (Promega Corporation, Madison, USA), which specifically correlates cell viability and toxicity to apoptosis. In brief, A2780wt and A2780cis cells, respectively, were seeded at a density of 8 × 10^3 cells per well into an opaque‐walled 96‐well plate with solid bottoms. […] After incubation, 20 µL of the provided viability/toxicity reagent was added and incubated for further 30 min on an orbital shaker at 37°C. […] Then, 100 µL of Caspase‐Glo 3/7 reagent was added, gently shaken for 30 s and further incubated for 30 min. The caspase activation was determined via the measurement of the luminescence. Analysis was performed on the BioTek Synergy H1 (Agilent Technologies, Santa Clara, USA).

[2] = Stability in RPMI 1640 cell culture medium (HPLC‐MS); assay type: physicochemical; details: RPMI 1640 without FCS, 1 h incubation, extracted ion chromatograms
Method: Additional stability studies in aqueous media and RPMI 1640 (without FCS) were carried out using RP‐HPLC‐MS. For this purpose, 0.5 mM solutions of complexes 1 and 2 were prepared in Milli‐Q water and RPMI 1640. Samples were analyzed by HPLC‐MS immediately after preparation and at selected time points during 24 h of incubation at rt. HPLC‐MS measurements were performed on Agilent 1260 system hyphenated to an MS Single Quad detector from Agilent with ESI (LC‐MSD from Agilent Technologies, Santa Clara, CA, USA). As stationary phase, a Gemini C18 110 Å; 150 × 4.6 mm; 3.0 µm particles (Phenomenex Ltd.; Aschaffenburg, Germany) column was employed and equipped with a 4 × 3 mm guard column of the identical material. The mobile phase flow was set to 0.8 mL/min; and consisted of a mixture of water (solvent A) – MeOH (solvent B) using gradient elution (0 min 5% B; 3 min 5% B; 17 min 98% B; 20 min stop; post time 10 min). The oven temperature was maintained at 30°C and the MS analysis was performed with split flow 1:5 of the eluate in positive ionization mode (capillary voltage 4.5 kV; source temperature 320°C; dry gas 10 L/min; nebulizer gas pressure 30 psi, scan range m/z 50–1500). The injection volume of the sample solution (V sample) was set to 10 µL. Sample degradation was evaluated by integration of the extracted ion chromatograms at the indicated m/z ± 0.5 (based on the monoisotopic peaks).

[3] = Stability in D2O (1H NMR); assay type: physicochemical; details: for behaviour in D2O (aquation): rt, up to 24 h
Method: Stability of the complexes 1–4 in CDCl3, CD3OD, CD3CN, DMF‐d7, and D2O was monitored by ^1H NMR spectroscopy at ambient temperature. Solutions of the complexes (approximately 3 mg/mL) were prepared in each solvent, and ¹H NMR spectra were recorded periodically over 24 h.

A2780wt cells = assay: Cellular platinum accumulation (HR CS AAS); assay type: cell-based; details: free complex, 25 µM, 24 h
Method: Stock solutions of the platinum complexes in DMF were freshly prepared and the stocks for the loaded compounds were freshly thawed. […] Cell pellets were prepared by removing the medium, washing twice with PBS, and detaching the cells with accutase (GE Healthcare, Chicago, IL, USA). Subsequently, cells were pelleted by centrifugation (4°C, 380g, 3 min). Each pellet was twice washed with PBS and then stored at −20°C until further analyses.
Cellular accumulation was quantified by measuring the total platinum content using HR CS AAS. […] The resulting lysates were analyzed using AAS at the wavelength λ = 265.9450 nm with a high resolution continuous source (HR CS) spectrometer (contrAA 700; Analytik Jena, Jena, Germany). The ASpect CS software (version 2.3.1.0; Analytik Jena, Jena, Germany) was used to handle the spectrometer. The graphite furnace (GF) sub‐technique was used for this. In the latter, atomization takes place electrothermally in pyrolytically coated graphite tubes bearing an integrated platform (Analytik Jena, Jena, Germany). The GF program is outlined in Supporting Information S2: Table S8. The samples stored in polystyrene vials (0.5 mL; Gesellschaft für Analysentechnik, Salzwedel, Germany) were injected onto this platform employing an MPE 60 autosampler (Analytik Jena, Jena, Germany). As the purge and the protective gas served argon (Alphagaz 1, 99.999%, Air Liquide, Düsseldorf, Germany). The mean integrated absorbance of three injections was adduced during all measurements. […] As the degree of cellular accumulation is indicated as amount of compound (pmol) in the cell lysate relative to its protein mass (mg), the protein content of each sample was determined. Therefore, the method described by Bradford was used. […] Each 20 µL of either albumin standards or the cell lysates were pipetted into a 96‐well plate (Sarstedt, Nürmbrecht, Germany), followed by adding 200 µL of Bradford's reagent (Roti‐Nanoquant, Carl Roth, Karlsruhe, Germany; diluted 1:5 with ultrapure water). After incubating (5 min, rt), the absorbance (λ = 595 nm) was read with a microplate reader (Tecan Infinite M 1000 Pro, Männedorf, Switzerland). All calibration standards and lysates were measured in duplicates.

[4] = Stability in aqueous solution (RP‐HPLC‐MS); assay type: physicochemical; details: 0.5 mM in water, rt; m/z 446.1 (1, 20 h), m/z 602.2 (2)
Method: Samples were analyzed by HPLC‐MS immediately after preparation and at selected time points during 24 h of incubation at rt. […] As stationary phase, a Gemini C18 110 Å; 150 × 4.6 mm; 3.0 µm particles (Phenomenex Ltd.; Aschaffenburg, Germany) column was employed and equipped with a 4 × 3 mm guard column of the identical material. […] The oven temperature was maintained at 30°C and the MS analysis was performed with split flow 1:5 of the eluate in positive ionization mode (capillary voltage 4.5 kV; source temperature 320°C; dry gas 10 L/min; nebulizer gas pressure 30 psi, scan range m/z 50–1500). The injection volume of the sample solution (V sample) was set to 10 µL. Sample degradation was evaluated by integration of the extracted ion chromatograms at the indicated m/z ± 0.5 (based on the monoisotopic peaks).

| Compound | x-fold caspase-3 induction compared to untreated cells [1] | concentration remaining in RPMI 1640 [2] | behaviour in D2O (aquation) [3] | complex that had released its acetates ([3]; within 5 min of dissolution) | uptake into A2780wt cells (total cellular platinum content) (A2780wt cells) | change of HPLC‐MS signal intensity in aqueous solution [4] |
| --- | --- | --- | --- | --- | --- | --- |
| CCN1[C]([Pt]([O]C(C)=O)([O]C(C)=O)[SH](C)(C)=O)N(CC)c2ccccc21 [Compound 1, (SP‐4‐2)‐Diacetato(1,3‐diethylbenzimidazol‐2‐ylidene)(dimethylsulfoxide)platinum(II)] | 2.64 ± 0.32 x-fold | approximately 37% | No significant spectral changes were observed during incubation for 24 h at rt | over 70% | 1.1 pmol/µg | No significant decrease in the intensity of this signal |
| CCN1[C]([Pt]([O]C(=O)C(Cl)Cl)([O]C(=O)C(Cl)Cl)[SH](C)(C)=O)N(CC)c2ccccc21 [Compound 3, (SP‐4‐2)‐Bis(dichloroacetato)(1,3‐diethylbenzimidazol‐2‐ylidene)(dimethylsulfoxide)platinum(II)] | 3.06 ± 1.20 x-fold | – | – | – | 1.17 pmol/µg | – |
| (SP‐4‐2)‐Bis(dichloroacetato)bis(1,3‐diethylbenzimidazol‐2‐ylidene)platinum(II) [Compound 4] | 1.89 ± 0.03 x-fold | – | – | – | 1.87 pmol/µg | – |
| (SP‐4‐2)‐Diacetatobis(1,3‐diethylbenzimidazol‐2‐ylidene)platinum(II) [Compound 2] | 0.39 ± 0.13 x-fold | ~7% | fast initial aquation | – | 0.82 pmol/µg | progressively decreased over time |
